Key:
CD8+ T cells [1] = experiment: IFNγ-ELISPOT of predicted H-2b-binding ZIKV peptides; format: cell-based, mouse; conditions: CD8+ T cells of mice infected with MR766 or FSS13025, day 7; positive: SFC per 10^6 CD8+ T cells ≥20 and stimulation index ≥2
Procedure: CD8^+ T cells were isolated by magnetic bead positive selection (Miltenyi Biotec, Germany). A total of 2×10^5 CD8^+ T cells were stimulated with 1×10^5 LPS-blast cells as antigen presenting cells (APCs) and 10 μg of individual ZIKV-derived peptide in 96-well flat-bottom plates (IMMOBILON™-P; Millipore, MA) coated with anti-mouse IFNγ monoclonal antibody (mAb) (clone AN18; Mabtech, Sweden) in triplicate. IFNγ-ELISPOT was performed as previously detailed (Elong Ngono et al., 2016). Positive peptides were those with a number of spot-forming cells (SFC) per 10^6 CD8^+ T cells ≥20 and a stimulation index ≥2 based on the negative control (DMSO). […]
The following results are with reference to FIG. 3A and FIG. 3B, where five-week-old LysMCre^+IFNAR^fl/fl were infected retro-orbitally with 10^4 FFU of ZIKV MR766 or FSS13025. […] A total of 244 peptides from ZIKV strains predicted to bind H-2Kb and H-2db with high affinity were screened. Two independent experiments for each ZIKV strain (n=5 mice for each experiment) were performed in triplicate per peptide. The data are expressed as the mean of spot forming cells (SFC) per 10^6 CD8^+ T cells, and error bars are represented as SEM. One-way ANOVA was used to compare the mean of each peptide with the control (DMSO) ([…]). […] The dotted line corresponds to the average amount of IFNγ produced by MOCK mice when stimulated with positive ZIKV-derived peptides (0.19% of IFNγ+CD8^+ T cells).

CD8+ T cells [2] = experiment: IFNγ ELISPOT, ZIKV-infected Ifnar-/- HLA-A*0101 transgenic mice; format: cell-based, mouse; conditions: HLA-A*0101 mice; for SFC/10^6 CD8+ T cells, FSS13025: 7 days after ZIKV FSS13025; for SFC/10^6 CD8+ T cells, MR766: 7 days after ZIKV MR766; for immunodominance in IFNγ ELISPOT: immunodominant: >500 SFCs/10^6 CD8+ T cells, shared by both ZIKV strains
Procedure: Two ZIKV strains, MR766 (Uganda, 1947) and FSS13025 (Cambodia, 2010), were obtained from the World Reference Center for Emerging Viruses and Arboviruses (WRCEVA). The mouse-adapted DENV2 strain S221 is a triple-plaque purified clone derived from DENV2 D2S1038. Both ZIKV and DENV2 were amplified in C6/36 mosquito cells, and viral titers were measured using baby hamster kidney (BHK)-21 cell-based focus forming assay (FFA). For epitope screening, 5-week old mice (female or male) were infected retro-orbitally (R.O.) with either 1×102 FFU of ZIKV FSS13025 or ZIKV MR766, or 2×10^4 FFU of DENV2 S221 in 200 μl 10% FBS/PBS. Seven days after infection, CD8^+ T cells were isolated from splenocytes and used for ELISPOT assay, while the splenocytes were directly used for ICS assay. Additionally, 5-week old mice were inoculated I.P. with 2×10^3 FFU of DENV2 S221 for 4 weeks.
CD8^+ T cells were isolated from splenocytes using magnetic bead positive selection (Miltenyi Biotec, Germany) 7 days after virus infection. 2×10^5 CD8^+ T cells were stimulated with 1×10^5 LPS-blasts loaded with 10 μg of individual peptide in 96-well flat-bottom plates (IMMOBILON™-P; Millipore, Bedford, Mass.) that were coated with anti-IFNγ mAb (clone AN18; Mabtech, Stockholm, Sweden) in triplicate. Concanavalin A (ConA) was used as positive control. After 20 hours of incubation, biotinylated anti-mouse IFNγ mAb (R4-6A2; Mabtech), followed by ABC peroxidase (Vector Laboratories, Burlingame, Calif., USA) and then 3-amino-9-ethylcarbazole (Sigma-Aldrich, St. Louis, Mo., USA) were added into the wells. […] A peptide inducing a magnitude of >500 SFCs/10^6 CD8^+ T cells was considered as an immunodominant peptide.
The following results are with respect to FIG. 9, where IFNγ ELISPOT was performed using CD8+ T cells isolated from Ifnar^−/− HLA-B*0702 transgenic mice (a and b) and Ifnar^−/− HLA-A*0101 transgenic mice (d and e) 7 days after retro-orbital (R.O.) infection with 1×10^2 FFU of ZIKV strain FSS13025 or MR766. Two independent experiments performed in triplicate were averaged and the error bars represent the SEM. The data are expressed as the mean number of spot forming cells (SFC) per 10^6 CD8^+ T cells. The criteria for positivity were net SFC per 10^6 cells of >20, and a stimulation index of >2.0 when compared with the negative control. Dotted lines represent the cutoff value. * Indicates a positive response. All positive peptides were grouped according the corresponding ZIKV protein (c and f); white and black bars are the total IFNγ response of all identified positive peptides from an indicated protein; numbers in parentheses are the number of positive peptides in this protein. ConA denotes Concanavalin A.

Row | Substance | Strains (ZIKV strain for which the peptide induced a positive T cell response, IFNγ-ELISPOT) (CD8+ T cells [1]) | SFC/10^6 CD8+ T cells, FSS13025 (CD8+ T cells [2]) [SFC/10^6 CD8+ T cells] | SFC/10^6 CD8+ T cells, MR766 (CD8+ T cells [2]) [SFC/10^6 CD8+ T cells] | immunodominance in IFNγ ELISPOT (CD8+ T cells [2])
1 | 28 (VSFIFRAN) [compound 28] | MR766/FSS | – | – | –
2 | 29 (VVIKNGSYV) [compound 29] | MR766/FSS | – | – | –
3 | DVEAWRDRY [FSS/MR-NS123-31] | – | 583 | 260 | immunodominant
4 | ELDPPFGDSY [FSS/MR-E377-386] | – | 286 | – | –
5 | ETDENRAKV [FSS/MR-E159-167] | – | 512 | 516 | immunodominant
6 | FSDLYYLTM [FSS/MR-E198-206] | – | 398 | 388 | –
7 | FTDPSSIAA [FSS/MR-NS3272-280] | – | – | 286 | –
8 | GLDFSDLYY [FSS/MR-E195-203] | – | 993 | 647 | immunodominant
9 | HMCDATMSY [FSS/MR-prM40-48] | – | 288 | – | –

From patent publication US11806393B2, “Flavivirus peptide sequences, epitopes, and methods and uses thereof” (priority 2017, dated 2023)
